Data on 14 molecules can be found in patent US9978954B2, “Benzobis (thiadiazole) derivative, ink comprising same, and organic electronic device comprising same” (UBE INDUSTRIES, LTD., priority 2013, dated 2018).

The data set can be described thus: Evaluation of solubility in organic solvents (visual observation of complete dissolution). The format is physicochemical. The protocol: [Evaluation of Solubility]
The evaluation of the solubility of the synthesized compound was conducted by the following method.
About 2-3 mg of the compound was precisely weighed, and each solvent was added to the compound such that a predetermined concentration of the solute (0.5 wt %, 0.3 wt %, 0.2 wt %, 0.1 wt %, 0.05 wt %, or 0.03 wt %) was reached. The resultant mixture was stirred for 30 minutes at a predetermined temperature, and then it was evaluated by visual appearance observation whether or not the solute (synthesized compound) was completely dissolved in the solvent, which was the result of the evaluation of the solubility. As the solvent, chloroform (boiling point 61° C.), toluene (boiling point 111° C.), xylene (boiling point 144° C.), mesitylene (boiling point 165° C.), chlorobenzene (boiling point 130° C.), para-chlorotoluene (boiling point 162° C.), and ortho-dichlorobenzene (boiling point 181° C.) were used.

The mark [1] stands for this setting: chloroform, 25° C. (room temperature).

For the molecule `CCCCCCCCc1ccc(-c2ccc(-c3c4c(c(-c5ccc(-c6ccc(CCCCCCCC)c(C#N)c6)s5)c5nsnc35)N=S=N4)s2)cc1C#N` [Compound (C26), 4,8-bis[5-(3-cyano-4-octylphenyl)thiophene-2-yl]benzo[1,2-c:4,5-c′]bis[1,2,5]thiadiazole], the “solubility (solute concentration completely dissolved)” value (from here on “solubility”) (1-methylnaphthalene, 60° C.) was no less than 0.3 wt %; the “solubility” value under setting [1] is given as no less than 0.2 wt %; the “solubility” value (mesitylene, 80° C.) is reported as no less than 0.3 wt %; the “solubility” value (ortho-dichlorobenzene, 60° C.) was no less than 0.3 wt %; the “solubility” value (toluene, 80° C.) is reported as no less than 0.3 wt %.

`CCCCCCc1cc(-c2ccc(-c3c4c(c(-c5ccc(-c6ccc(C(F)(F)F)c(CCCCCC)c6)s5)c5nsnc35)N=S=N4)s2)ccc1C(F)(F)F` [Compound (C10), 4,8-bis[5-(3-hexyl-4-(trifluoromethyl)phenyl)thiophene-2-yl]benzo[1,2-c:4,5-c′]bis[1,2,5]thiadiazole]: the “solubility” value reads like this: (chlorobenzene, 25° C.) no less than 0.03 wt %; (chlorobenzene, 60° C.) no less than 0.1 wt %; (chlorobenzene, 80° C.) no less than 0.3 wt %; (mesitylene, 25° C.) no less than 0.03 wt %; (ortho-dichlorobenzene, 25° C.) no less than 0.03 wt %; (ortho-dichlorobenzene, 60° C.) no less than 0.1 wt %. For the same molecule, the “solubility” value by setting is: (ortho-dichlorobenzene, 100° C.) no less than 0.5 wt %; (toluene, 25° C.) no less than 0.03 wt %.

On to `CCCCC(CC)Cc1ccc(-c2ccc(-c3c4c(c(-c5ccc(-c6ccc(CC(CC)CCCC)c(C(F)(F)F)c6)s5)c5nsnc35)N=S=N4)s2)cc1C(F)(F)F` (stereo not shown) [Compound (C31)], for which the “solubility” value (1-methylnaphthalene, 25° C. (room temperature)) is no less than 0.3 wt %; the “solubility” value under setting [1] is given as no less than 0.2 wt %; the “solubility” value (mesitylene, 25° C.) was no less than 0.3 wt %; the “solubility” value (ortho-dichlorobenzene, 25° C.) was no less than 0.3 wt %; the “solubility” value (toluene, 25° C.) is recorded as no less than 0.3 wt %.

As for `CCCCCCc1ccc(-c2ccc(-c3c4c(c(-c5ccc(-c6ccc(CCCCCC)c(C(F)(F)F)c6)s5)c5nsnc35)N=S=N4)s2)cc1C(F)(F)F` [Compound (C9), 4,8-bis[5-(4-hexyl-3-(trifluoromethyl)phenyl)thiophene-2-yl]benzo[1,2-c:4,5-c′]bis[1,2,5]thiadiazole], the “solubility” value by setting is: (chlorobenzene, 25° C.) no less than 0.03 wt %; (mesitylene, 25° C.) no less than 0.03 wt %; (mesitylene, 60° C.) no less than 0.1 wt %; (mesitylene, 80° C.) no less than 0.5 wt %; (ortho-dichlorobenzene, 25° C.) no less than 0.03 wt %; (toluene, 25° C.) no less than 0.03 wt %. Moreover, the “solubility” value (toluene, 60° C.) is no less than 0.1 wt % and the “solubility” value (toluene, 80° C.) is reported as no less than 0.5 wt %.

On to `CCCCCCc1ccc(-c2ccc(-c3c4c(c(-c5ccc(-c6ccc(CCCCCC)c(OC(F)(F)F)c6)s5)c5nsnc35)N=S=N4)s2)cc1OC(F)(F)F` [Compound (C11), 4,8-bis[5-(4-hexyl-3-(trifluoromethoxy)phenyl)thiophene-2-yl]benzo[1,2-c:4,5-c′]bis[1,2,5]thiadiazole], for which the “solubility” value by setting is: (chlorobenzene, 60° C.) no less than 0.1 wt %; (chlorobenzene, 80° C.) no less than 0.5 wt %; (mesitylene, 80° C.) no less than 0.1 wt %; (mesitylene, 100° C.) no less than 0.5 wt %; (ortho-dichlorobenzene, 60° C.) no less than 0.1 wt %; (ortho-dichlorobenzene, 80° C.) no less than 0.5 wt %. In addition, the “solubility” value by setting is: (toluene, 60° C.) no less than 0.1 wt %; (toluene, 80° C.) no less than 0.5 wt %.

Take `CCCCCCCCc1ccc(-c2ccc(-c3c4c(c(-c5ccc(-c6ccc(CCCCCCCC)c(C(F)(F)F)c6)s5)c5nsnc35)N=S=N4)s2)cc1C(F)(F)F` [Compound (C25), 4,8-bis[5-(4-octyl-3-(trifluoromethyl)phenyl)thiophene-2-yl]benzo[1,2-c:4,5-c′]bis[1,2,5]thiadiazole]: the “solubility” value by setting is: (1-methylnaphthalene, 60° C.) no less than 0.3 wt %; (chloroform, 60° C.) no less than 0.2 wt %; (mesitylene, 60° C.) no less than 0.3 wt %; (ortho-dichlorobenzene, 60° C.) no less than 0.3 wt %; (toluene, 60° C.) no less than 0.3 wt %.

Take `FC(F)(F)c1cccc(-c2ccc(-c3c4c(c(-c5ccc(-c6cccc(C(F)(F)F)c6)s5)c5nsnc35)N=S=N4)s2)c1` [Compound (C2), 4,8-bis[5-(3-(trifluoromethyl)phenyl)thiophene-2-yl]benzo[1,2-c:4,5-c′]bis[1,2,5]thiadiazole]: the “solubility” value (chlorobenzene, 80° C.) is given as no less than 0.1 wt %; the “solubility” value (chlorobenzene, 100° C.) is given as no less than 0.3 wt %; the “solubility” value (mesitylene, 25° C.) was no less than 0.03 wt %; the “solubility” value (mesitylene, 80° C.) is no less than 0.1 wt %; the “solubility” value (ortho-dichlorobenzene, 80° C.) is given as no less than 0.1 wt %; the “solubility” value (ortho-dichlorobenzene, 100° C.) is no less than 0.5 wt %. Besides, the “solubility” value (toluene, 25° C.) is on record as no less than 0.03 wt % and the “solubility” value (toluene, 100° C.) is no less than 0.1 wt %.

Consider `CCCCC(CC)Cc1cc(-c2ccc(-c3c4c(c(-c5ccc(-c6ccc(C(F)(F)F)c(CC(CC)CCCC)c6)s5)c5nsnc35)N=S=N4)s2)ccc1C(F)(F)F` (stereo not shown) [Compound (C30)], for which the “solubility” value (1-methylnaphthalene, 60° C.) is no less than 0.3 wt %; the “solubility” value (chloroform, 60° C.) is on record as no less than 0.2 wt %; the “solubility” value (mesitylene, 80° C.) is no less than 0.3 wt %; the “solubility” value (ortho-dichlorobenzene, 80° C.) is no less than 0.3 wt %; the “solubility” value (toluene, 80° C.) is recorded as no less than 0.3 wt %.

For `FC(F)(F)Oc1cccc(-c2ccc(-c3c4c(c(-c5ccc(-c6cccc(OC(F)(F)F)c6)s5)c5nsnc35)N=S=N4)s2)c1` [Compound (C1), 4,8-bis[5-(3-(trifluoromethoxy)phenyl)thiophene-2-yl]benzo[1,2-c:4,5-c′]bis[1,2,5]thiadiazole], the “solubility” value by setting is: (mesitylene, 80° C.) no less than 0.1 wt %; (mesitylene, 130° C.) no less than 0.3 wt %; (toluene, 100° C.) no less than 0.1 wt %.

As for “4,8-bis[5-(4-cyano-3-(2-methylhexyl)phenyl)thiophene-2-yl]benzo[1,2-c:4,5-c′]bis[1,2,5]thiadiazole [Compound (C29)]”, the “solubility” value is given as no less than 0.3 wt % (1-methylnaphthalene, 60° C.) and no less than 0.1 wt % (chloroform, 60° C.).

Take `FC(F)(F)Oc1ccccc1-c1ccc(-c2c3c(c(-c4ccc(-c5ccccc5OC(F)(F)F)s4)c4nsnc24)N=S=N3)s1` [Compound (RR1), 4,8-bis[5-(2-(trifluoromethoxy)phenyl)thiophene-2-yl]benzo[1,2-c:4,5-c′]bis[1,2,5]thiadiazole, reference compound]: the “solubility” value runs as follows: (mesitylene, 80° C.) no less than 0.1 wt %; (toluene, 80° C.) no less than 0.1 wt %.

In the case of `CCCCCCc1cc(-c2ccc(-c3c4c(c(-c5ccc(-c6ccc(OC(F)(F)F)c(CCCCCC)c6)s5)c5nsnc35)N=S=N4)s2)ccc1OC(F)(F)F` [Compound (C12)], the “solubility” value is, setting by setting: (chlorobenzene, 60° C.) no less than 0.1 wt %; (chlorobenzene, 80° C.) no less than 0.5 wt %; (mesitylene, 80° C.) no less than 0.1 wt %; (mesitylene, 130° C.) no less than 0.5 wt %; (ortho-dichlorobenzene, 60° C.) no less than 0.1 wt %; (ortho-dichlorobenzene, 80° C.) no less than 0.5 wt %.

For the molecule `CCCCCCCCc1cc(-c2ccc(-c3c4c(c(-c5ccc(-c6ccc(C(F)(F)F)c(CCCCCCCC)c6)s5)c5nsnc35)N=S=N4)s2)ccc1C(F)(F)F` [Compound (C24), 4,8-bis[5-(3-octyl-4-(trifluoromethyl)phenyl)thiophene-2-yl]benzo[1,2-c:4,5-c′]bis[1,2,5]thiadiazole], the “solubility” value reads like this: (1-methylnaphthalene, 60° C.) no less than 0.3 wt %; (chloroform, 60° C.) no less than 0.2 wt %; (mesitylene, 60° C.) no less than 0.3 wt %; (ortho-dichlorobenzene, 60° C.) no less than 0.3 wt %; (toluene, 60° C.) no less than 0.3 wt %.

For `FC(F)(F)c1cc(-c2ccc(-c3c4c(c(-c5ccc(-c6cc(C(F)(F)F)cc(C(F)(F)F)c6)s5)c5nsnc35)N=S=N4)s2)cc(C(F)(F)F)c1` [Compound (C3), 4,8-bis[5-(3,5-bis(trifluoromethyl)phenyl)thiophene-2-yl]benzo[1,2-c:4,5-c′]bis[1,2,5]thiadiazole], the “solubility” value is, setting by setting: (chlorobenzene, 130° C.) no less than 0.1 wt %; (mesitylene, 130° C.) no less than 0.1 wt %; (ortho-dichlorobenzene, 100° C.) no less than 0.1 wt %.
